The test addresses T1, GLT-1 (Neurospora crassa, UniProt Q1K4S3).
T1 construct: gene NCU01633
Kind of test: radiolabeled glucose uptake in S. cerevisiae EBY.VW4000. To be noted: labelled compound; transport into whole yeast cells expressing the eGFP fusion. The format is cell-based.

T1 sequence (Q1K4S3 entry or part of it): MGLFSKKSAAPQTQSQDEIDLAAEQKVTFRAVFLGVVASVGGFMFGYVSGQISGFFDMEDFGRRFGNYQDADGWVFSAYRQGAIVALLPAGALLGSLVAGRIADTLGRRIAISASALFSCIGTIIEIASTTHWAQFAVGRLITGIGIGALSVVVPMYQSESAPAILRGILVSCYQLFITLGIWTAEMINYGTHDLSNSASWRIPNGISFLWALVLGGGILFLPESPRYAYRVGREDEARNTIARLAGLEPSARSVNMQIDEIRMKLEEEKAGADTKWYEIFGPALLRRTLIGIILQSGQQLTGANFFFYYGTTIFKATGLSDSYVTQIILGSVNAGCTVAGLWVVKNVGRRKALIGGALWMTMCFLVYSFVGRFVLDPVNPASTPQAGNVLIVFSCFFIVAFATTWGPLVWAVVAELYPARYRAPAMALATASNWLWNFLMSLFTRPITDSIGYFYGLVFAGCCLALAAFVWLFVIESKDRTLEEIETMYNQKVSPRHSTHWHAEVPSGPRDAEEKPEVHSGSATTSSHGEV

For `OC[C@H]1OC(O)[C@H](O)[C@@H](O)[C@@H]1O` (stereo partly shown) [glucose], the Michaelis constant (Km) amounted to 18.4 ± 3.38 mM.

By Km is commonly meant the substrate concentration at which the rate is half of its maximum.

The values above are taken from PMC5244594 (Biotechnology for Biofuels, 2017).
